In publication PMC6139898, “Engineering xylose metabolism in thraustochytrid T18” (Biotechnology for Biofuels, 2018):

Experiments:
XylA = molecular target: T1, XylA (Escherichia coli, UniProt P00944); experiment: HPLC-RI substrate conversion, overnight; assay type: biochemical; settings: 30 °C, 50 mM HEPES pH 7.4, 10 mM MgCl2, 5 mM MgATP
T1 construct: full length, N-terminal His tag, expressed in E. coli BL21(DE3)pLysS
T1 sequence (P00944 1-440): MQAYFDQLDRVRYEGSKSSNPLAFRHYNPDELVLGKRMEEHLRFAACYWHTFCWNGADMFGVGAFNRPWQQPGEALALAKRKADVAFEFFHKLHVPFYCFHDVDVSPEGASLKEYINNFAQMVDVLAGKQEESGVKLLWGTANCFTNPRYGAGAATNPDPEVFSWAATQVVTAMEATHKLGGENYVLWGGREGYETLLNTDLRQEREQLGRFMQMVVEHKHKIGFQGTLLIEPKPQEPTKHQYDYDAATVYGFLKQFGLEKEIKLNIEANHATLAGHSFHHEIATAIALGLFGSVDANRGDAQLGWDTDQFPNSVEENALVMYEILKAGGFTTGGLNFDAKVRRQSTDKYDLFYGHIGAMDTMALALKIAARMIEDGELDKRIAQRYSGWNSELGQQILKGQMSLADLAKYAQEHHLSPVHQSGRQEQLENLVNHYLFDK

[1] = molecular target: T2, T18 xylose isomerase (XI) (Thraustochytrium sp. ONC-T18, UniProt A0A385ZBK6); experiment: HPLC-RI substrate conversion, overnight; assay type: biochemical; settings: 50 °C, 50 mM HEPES pH 7.4, 10 mM MgCl2, 5 mM MgATP; partly pure fraction
T2 construct: gene xylA
T2 sequence (A0A385ZBK6 1-439): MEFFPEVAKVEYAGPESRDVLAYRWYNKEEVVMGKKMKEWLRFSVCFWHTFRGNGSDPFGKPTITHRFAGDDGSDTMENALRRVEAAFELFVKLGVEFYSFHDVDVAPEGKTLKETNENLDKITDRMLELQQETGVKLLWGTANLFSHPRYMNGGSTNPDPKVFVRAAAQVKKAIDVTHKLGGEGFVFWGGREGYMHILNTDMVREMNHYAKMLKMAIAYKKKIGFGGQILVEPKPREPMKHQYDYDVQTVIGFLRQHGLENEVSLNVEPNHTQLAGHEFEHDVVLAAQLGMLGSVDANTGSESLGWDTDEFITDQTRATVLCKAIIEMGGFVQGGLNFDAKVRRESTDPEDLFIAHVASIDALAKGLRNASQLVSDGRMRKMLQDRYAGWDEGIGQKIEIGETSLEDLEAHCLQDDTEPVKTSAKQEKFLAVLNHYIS

Compound | HPLC-RI substrate conversion, overnight (XylA) | HPLC-RI substrate conversion, overnight [1]
O=C(CO)[C@@H](O)[C@H](O)CO [xylulose] | Both XylA and T18 xylose isomerase showed increased activity on both sugars | Both XylA and T18 xylose isomerase showed increased activity on both sugars
OC1OC[C@@H](O)[C@H](O)[C@H]1O (stereo partly shown) [xylose] | Both XylA and T18 xylose isomerase showed increased activity on both sugars | Both XylA and T18 xylose isomerase showed increased activity on both sugars
